Target: T1, KCNQ2/3 potassium ion channel (Homo sapiens, UniProt O43525+O43526)
T1 construct: expressed in transfected cells; host or cells: CHO cells (hKCNQ-CHO)
Experiment: KCNQ2/3 potassium ion channel activation assay (whole-cell patch clamp, hKCNQ-CHO cells)
Format: cell-based
Conditions: for activation at 0.05 µM: test concentration 0.05 μM; for activation at 0.05 µM / activation at 3 µM: read-out: Enhancment % (current enhancement multiple)
Procedure: Example 64: KCNQ2/3 Potassium Ion Channel Activation Assay
hKCNQ-CHO cells were cultured at 37° C. in a humidified environment of 5% CO2.
• 2.1. Extracellular fluid (mM): NaCl 145, KCl 4, CaCl2 2, MgCl2 1, Glucose 10, HEPES 10. The pH value of the extracellular fluid was adjusted to 7.4 with NaOH, and the osmotic pressure was adjusted to about 295 mOsm. • 2.2. Intracellular fluid (mM (mmol/L)): KOH 31.25, KCl 120, EGTA 10, MgCl2 1.75, CaCl2 5.374, HEPES 10, Na-ATP 4. The pH value of the intracellular fluid was adjusted to 7.4 with HCl, and the osmotic pressure was adjusted to about 285 mOsm. • 2.3. The extracellular fluid should be prepared once a week, and the intracellular fluid should be stored at −20° C. after preparation.
The model positive reference compound Retigabine (RTG) was dissolved with 100% DMSO and configured as a 10 mM working solution. The test compounds were dissolved with 100% DMSO and configured as a 10 mM working solution. The final concentration of DMSO in the test solution should be less than 0.3%.
Whole-cell patch clamp was performed at room temperature. The electrical signals recorded with the EPC 10 USB amplifier (HEKA Elektronik, Germany) were filtered by a 3 kHz low-pass filter, and finally recorded in PatchMaster 2×90.5 software (HEKA Elektronik, Germany). At this step, the quality control standard was that the cell high-resistance sealing was greater than 500 MOhms, and the detection current was greater than 0.4 nA.
The recording electrodes were pulled out and polished with a vertical puller (NARISHIGE PC-10, Japan) using a borosilicate glass capillary (GC150tF-10, Harvard Apparatus Co., UK). At this step, the quality control standard was that the electrode resistance was between 2 MΩ and 5 MΩ.
During the recording process of the whole-cell patch clamp, a continuous perfusion system (BT100-2J, LongerPump, China) was used to continuously perfuse the extracellular fluid. The perfusion system was installed on the stage of an upright microscope (FN-S2N, Nikon, Japan), and the perfusion head was manually positioned under the microscope.
The voltage command for detecting the amplitude of hKCNQ current was as follows: the cell stepped from the clamping potential of −80 mV to −30 mV, and held for 1500 ms; and then the clamping voltage was lowered to −120 my and held for 500 ms; finally, the voltage returned to the clamping potential of −80 mV. The detection voltage command was repeated every 15,000 milliseconds, and the command was continuously executed during the compound test. The quality control standard for compound action stability was the current amplitude under 5 consecutive voltage commands, and the coefficient of variation of the current amplitude was <5%.
Data analysis was performed using PatchMaster 2×90.5 software (HEKA Elektronik, Germany) and Excel 2013 (Microsoft, USA) software. For each cell's patch clamp recording, the amplitude of the hKCNQ channel current (Itest) corresponding to the test compound concentration should be obtained. The enhanced channel current was obtained by subtracting the cell's original channel current (Icontrol) from Itest and dividing by Icontrol to obtain the current enhancement multiple. That is, the current enhancement multiple (Enhancment %)=(Itest −Icontrol)/Icontrol[…].

| SMILES | activation at 0.05 µM [%] | activation at 3 µM (test concentration 3 μM) [%] | Enhancment % (activation activity on KCNQ2/3 potassium ion channel) (test concentration 3 μM, numeric value) [%] |
| --- | --- | --- | --- |
| CC1=CCN(c2cc(C)c(NC(=O)CC(C)(C)C)c(C)c2)Cc2ccc(F)cc21 [Compound 028, N-(4-(7-fluoro-5-methyl-1,3-dihydro-2H-benzo[c]azepin-2-yl)-2,6-dimethylphenyl)-3,3-dimethylbutanamide] | < 50 | 50 to 100 | – |
| Cc1cc(N2CCCc3cc(OC(F)F)ccc3C2)cc(C)c1NC(=O)CC(C)(C)C [Compound 005, N-(4-(7-(difluoromethoxy)-1,3,4,5-tetrahydro-2H-benzo[c]azepin-2-yl)-2,6-dimethylphenyl)-3,3-dimethylbutanamide] | < 50 | > 100 | – |
| CCC(C)Oc1cc2c(cc1F)CN(c1cc(C)c(NC(=O)CC(C)(C)C)c(C)c1)CCC2 (centres unmarked) [Compound 039, N-(4-(7-(sec-butoxy)-8-fluoro-1,3,4,5-tetrahydro-2H-benzo[c]azepin-2-yl)-2,6-dimethylphenyl)-3,3-dimethylbutanamide] | – | > 100 | – |
| Cc1cc(N2CCCc3cc(OC4CCC4)ccc3C2)cc(C)c1NC(=O)CC(C)(C)C [Compound 010, N-(4-(7-cyclobutoxy-1,3,4,5-tetrahydro-2H-benzo[c]azepin-2-yl)-2,6-dimethylphenyl)-3,3-dimethylbutanamide] | > 100 | > 100 | – |
| Cc1cc(N2CCCc3cc(OC4CC4)c(F)cc3C2)cc(C)c1NC(=O)CC(C)(C)C [Compound 042, N-(4-(7-cyclopropoxy-8-fluoro-1,3,4,5-tetrahydro-2H-benzo[c]azepin-2-yl)-2,6-dimethylphenyl)-3,3-dimethylbutanamide] | – | > 100 | – |
| Cc1cc(N2CCSc3cc(F)ccc3C2)cc(C)c1NC(=O)CC(C)(C)C [Compound 025, N-(4-(8-fluoro-2,3-dihydrobenzo[f][1,4]thiazepin-4(5H)-yl)-2,6-dimethylphenyl)-3,3-dimethylbutanamide] | – | > 100 | – |
| Cc1cc(N2CCCc3cc(F)ccc3C2)c(Cl)c(C)c1NC(=O)CC(C)(C)C [Compound 031, N-(3-chloro-4-(7-fluoro-1,3,4,5-tetrahydro-2H-benzo[c]azepin-2-yl)-2,6-dimethylphenyl)-3,3-dimethylbutanamide] | – | > 100 | – |
| CSc1ccc2c(c1)CCCN(c1cc(C)c(NC(=O)CC(C)(C)C)c(C)c1)C2 [Compound 014, N-(2,6-dimethyl-4-(7-(methylthio)-1,3,4,5-tetrahydro-2H-benzo[c]azepin-2-yl)phenyl)-3,3-dimethylbutanamide] | < 50 | 50 to 100 | – |
| Cc1cc(N2CC=Cc3cc(F)c(F)cc3C2)cc(C)c1NC(=O)CC(C)(C)C [Compound 046, N-(4-(7,8-difluoro-1,3-dihydro-2H-benzo[c]azepin-2-yl)-2,6-dimethylphenyl)-3,3-dimethylbutanamide] | – | > 100 | – |
| Cc1cc(N2CCCc3cc(F)c(F)cc3C2)c(Cl)c(C)c1NC(=O)CC(C)(C)C [Compound 048, N-(3-chloro-4-(7,8-difluoro-1,3,4,5-tetrahydro-2H-benzo[c]azepin-2-yl)-2,6-dimethylphenyl)-3,3-dimethylbutanamide] | – | > 100 | – |
| Cc1cc(N2CCCc3cc(OC4CCCCC4)ccc3C2)cc(C)c1NC(=O)CC(C)(C)C [Compound 012, N-(4-(7-(cyclohexyloxy)-1,3,4,5-tetrahydro-2H-benzo[c]azepin-2-yl)-2,6-dimethylphenyl)-3,3-dimethylbutanamide] | – | > 100 | – |
| Cc1cc(N2CCC(C)(C)c3ccccc3C2)cc(C)c1NC(=O)CC(C)(C)C [Compound 017, N-(4-(5,5-dimethyl-1,3,4,5-tetrahydro-2H-benzo[c]azepin-2-yl)-2,6-dimethylphenyl)-3,3-dimethylbutanamide] | < 50 | 50 to 100 | – |
| Cc1cc(N2CCCc3cc(OC/C=C/C(F)(F)F)ccc3C2)cc(C)c1NC(=O)CC(C)(C)C [Compound 050, (E)-N-(2,6-dimethyl-4-(7-((4,4,4-trifluorobut-2-en-1-yl)oxy)-1,3,4,5-tetrahydro-2H-benzo[c]azepin-2-yl)phenyl)-3,3-dimethylbutanamide] | – | > 100 | – |
| Cc1cc(N2CCCc3cc(OCCCC(F)(F)F)ccc3C2)cc(C)c1NC(=O)CC(C)(C)C [Compound 060, N-(2,6-dimethyl-4-(7-(4,4,4-trifluorobutoxy)-1,3,4,5-tetrahydro-2H-benzo[c]azepin-2-yl)phenyl)-3,3-dimethylbutanamide] | – | > 100 | – |
| Cc1cc(N2CCCc3cc(F)ccc3C2)cc(C)c1NC(=O)CC(C)(C)C [a, reference compound] | – | – | 41.39 |
| Cc1cc(N2CCC3(CC3)c3cc(F)ccc3C2)cc(C)c1NC(=O)CC(C)(C)C [Compound 022, N-(4-(7-fluoro-3,4-dihydrospiro[benzo[c]azepine-5,1′-cyclopropan]-2(1H)-yl)-2,6-dimethylphenyl)-3,3-dimethylbutanamide] | – | 50 to 100 | – |
| Cc1cc(N2CCNc3cc(F)ccc3C2)cc(C)c1NC(=O)CC(C)(C)C [Compound 023, N-(4-(8-fluoro-1,2,3,5-tetrahydro-4H-benzo[e][1,4]diazepin-4-yl)-2,6-dimethylphenyl)-3,3-dimethylbutanamide] | – | > 100 | – |
| COc1cc2c(cc1F)CN(c1cc(C)c(NC(=O)CC(C)(C)C)c(C)c1)CCC2 [Compound 038, N-(4-(8-fluoro-7-methoxy-1,3,4,5-tetrahydro-2H-benzo[c]azepin-2-yl)-2,6-dimethylphenyl)-3,3-dimethylbutanamide] | – | > 100 | – |
| Cc1cc(N2CCCc3cc(OC4COC4)ccc3C2)cc(C)c1NC(=O)CC(C)(C)C [Compound 013, N-(2,6-dimethyl-4-(7-(oxetan-3-yloxy)-1,3,4,5-tetrahydro-2H-benzo[c]azepin-2-yl)phenyl)-3,3-dimethylbutanamide] | – | > 100 | – |
| Cc1c(NC(=O)CC(C)(C)C)ccc(N2CCCc3cc(F)ccc3C2)c1F [Compound 029, N-(3-fluoro-4-(7-fluoro-1,3,4,5-tetrahydro-2H-benzo[c]azepin-2-yl)-2-methylphenyl)-3,3-dimethylbutanamide] | – | 50 to 100 | – |
| Cc1cc(N2CCCc3cc(OCCCCF)ccc3C2)cc(C)c1NC(=O)CC(C)(C)C [Compound 063, N-(4-(7-(4-fluorobutoxy)-1,3,4,5-tetrahydro-2H-benzo[c]azepin-2-yl)-2,6-dimethylphenyl)-3,3-dimethylbutanamide] | – | > 100 | – |
| Cc1cc(N2CC=Cc3cc(F)ccc3C2)cc(C)c1NC(=O)CC(C)(C)C [Compound 027, N-(4-(7-fluoro-1,3-dihydro-2H-benzo[c]azepin-2-yl)-2,6-dimethylphenyl)-3,3-dimethylbutanamide] | < 50 | > 100 | – |
| COC(Oc1ccc2c(c1)CCCN(c1cc(C)c(NC(=O)CC(C)(C)C)c(C)c1)C2)C(F)(F)F (centres unmarked) [Compound 052, N-(2,6-dimethyl-4-(7-(2,2,2-trifluoro-1-methoxyethoxy)-1,3,4,5-tetrahydro-2H-benzo[c]azepin-2-yl)phenyl)-3,3-dimethylbutanamide] | – | > 100 | – |
| Cc1cc(N2CCCc3cc(OC4CCC4)c(F)cc3C2)cc(C)c1NC(=O)CC(C)(C)C [Compound 043, N-(4-(7-cyclobutoxy-8-fluoro-1,3,4,5-tetrahydro-2H-benzo[c]azepin-2-yl)-2,6-dimethylphenyl)-3,3-dimethylbutanamide] | – | > 100 | – |
| Cc1cc(N2CCN(C)c3cc(F)ccc3C2)cc(C)c1NC(=O)CC(C)(C)C [Compound 024, N-(4-(8-fluoro-1-methyl-1,2,3,5-tetrahydro-4H-benzo[e][1,4]diazepin-4-yl)-2,6-dimethylphenyl)-3,3-dimethylbutanamide] | – | 50 to 100 | – |
| Cc1cc(N2CCCc3cc(OCC(F)(F)F)ccc3C2)cc(C)c1NC(=O)CC(C)(C)C [Compound 007, N-(2,6-dimethyl-4-(7-(2,2,2-trifluoroethoxy)-1,3,4,5-tetrahydro-2H-benzo[c]azepin-2-yl)phenyl)-3,3-dimethylbutanamide] | – | > 100 | – |

Reference: US20240317689A1, “POTASSIUM CHANNEL MODULATOR, COMPOSITION AND APPLICATION” (NEUSHEN THERAPEUTICS (SHANGHAI) CO., LTD, priority 2021, published 2024)
